The assay has as its system L1210 leukemia ip in BDF1 mice, survival T/C. As to the kind of experiment: NCI In Vivo Anticancer Drug Screen. Data for tumor model L1210 Leukemia (intraperitoneal) in B6D2F1 (BDF1) mice. Conditions: endpoint: mean survival time, higher = longer survival. The method in brief:
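Tumor was transplanted into mice, which were then dosed with test compound or vehicle alone. Survival was recorded for each group, and the treated figure was expressed relative to the control figure.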

[1] abbreviates: dose: 100.0 mg/kg/injection, schedule: Q01DX009 (ip), vehicle: saline.
Setting [2] is: dose: 100.0 mg/kg/injection, schedule: Q04DX003 (ip), vehicle: saline.
[3] abbreviates: dose: 200.0 mg/kg/injection, schedule: Q01DX009 (ip), vehicle: saline.
[4] abbreviates: dose: 200.0 mg/kg/injection, schedule: Q04DX003 (ip), vehicle: saline.
Where [5] appears, read: dose: 100.0 mg/kg/injection, schedule: Q01DX009 (ip), vehicle: Klucel (hydroxypropylcellulose) (HPC).
The mark [6] stands for this setting: dose: 150.0 mg/kg/injection, schedule: Q01DX001 (ip), vehicle: saline.
The mark [7] stands for this setting: dose: 200.0 mg/kg/injection, schedule: Q01DX009 (ip), vehicle: Klucel (hydroxypropylcellulose) (HPC).
Setting [8] is: dose: 100.0 mg/kg/injection, schedule: Q01DX001 (ip), vehicle: Klucel (hydroxypropylcellulose) (HPC).
Setting [9] is: dose: 200.0 mg/kg/injection, schedule: Q01DX001 (ip), vehicle: Klucel (hydroxypropylcellulose) (HPC).
The mark [10] stands for this setting: dose: 400.0 mg/kg/injection, schedule: Q01DX001 (ip), vehicle: Klucel (hydroxypropylcellulose) (HPC).
The mark [11] stands for this setting: dose: 400.0 mg/kg/injection, schedule: Q01DX009 (ip), vehicle: Klucel (hydroxypropylcellulose) (HPC).

Structures are written as SMILES. Values joined by “and” are separate entries in the source; they are usually repeats but may differ in a detail not shown here. Identical values can stand only once. Inconclusive results and toxic doses are left out.

Take `[N-]=[N+]=C1C(=O)NC(=O)N2C3CC(O)C(COC12)O3` (stereo unspecified): the T/C (dose: 32.0 mg/kg/injection, schedule: Q01DX Z (oral), vehicle: saline) is 110 % of control; the T/C (dose: 63.0 mg/kg/injection, schedule: Q01DX Z (oral), vehicle: saline) was 105 % of control; the T/C under setting [1] was 111 % of control; the T/C under setting [2] was 102 % of control; the T/C (dose: 125.0 mg/kg/injection, schedule: Q01DX Z (oral), vehicle: saline) was 101 % of control; the T/C (dose: 133.0 mg/kg/injection, schedule: Q01DX006 (iv), vehicle: saline) was 106 % of control. Moreover, the T/C runs as follows: (dose: 133.0 mg/kg/injection, schedule: Q01DX Z (ip), vehicle: carboxymethylcellulose (CMC)) 104 % of control; (dose: 133.0 mg/kg/injection, schedule: Q01DX Z (ip), vehicle: saline) 113 % of control and 119 % of control; (dose: 200.0 mg/kg/injection, schedule: Q01DX006 (iv), vehicle: saline) 110 % of control; under setting [3], 114 % of control; (dose: 200.0 mg/kg/injection, schedule: Q01DX Z (ip), vehicle: carboxymethylcellulose (CMC)) 105 % of control; (dose: 200.0 mg/kg/injection, schedule: Q01DX Z (ip), vehicle: saline) 117 % of control. The T/C is 107 % of control under setting [4]; 108 % of control (dose: 250.0 mg/kg/injection, schedule: Q01DX Z (oral), vehicle: carboxymethylcellulose (CMC)); 105 % of control and 107 % of control (dose: 250.0 mg/kg/injection, schedule: Q01DX Z (oral), vehicle: saline); 118 % of control (dose: 300.0 mg/kg/injection, schedule: Q01DX006 (iv), vehicle: saline); 150 % of control (dose: 300.0 mg/kg/injection, schedule: Q01DX Z (ip), vehicle: saline); 107 % of control (dose: 400.0 mg/kg/injection, schedule: Q04DX003 (ip), vehicle: saline). Moreover, the T/C is, setting by setting: (dose: 450.0 mg/kg/injection, schedule: Q01DX006 (iv), vehicle: saline) 116 % of control; (dose: 500.0 mg/kg/injection, schedule: Q01DX Z (oral), vehicle: carboxymethylcellulose (CMC)) 98 % of control; (dose: 500.0 mg/kg/injection, schedule: Q01DX Z (oral), vehicle: saline) 107 % of control and 117 % of control; (dose: 675.0 mg/kg/injection, schedule: Q01DX006 (iv), vehicle: saline) 112 % of control; (dose: 675.0 mg/kg/injection, schedule: Q01DX Z (ip), vehicle: saline) 111 % of control; (dose: 800.0 mg/kg/injection, schedule: Q01DX006 (iv), vehicle: saline) 102 % of control. Moreover, the T/C runs as follows: (dose: 1000.0 mg/kg/injection, schedule: Q01DX006 (iv), vehicle: saline) 102 % of control; (dose: 1000.0 mg/kg/injection, schedule: Q01DX Z (oral), vehicle: carboxymethylcellulose (CMC)) 100 % of control; (dose: 2000.0 mg/kg/injection, schedule: Q01DX Z (oral), vehicle: carboxymethylcellulose (CMC)) 107 % of control.
As to `CCOC(=O)C(C)(O)C(C)(Cl)c1ccccc1` (stereo unspecified), the T/C is, setting by setting: (dose: 25.0 mg/kg/injection, schedule: Q01DX009 (ip), vehicle: Klucel (hydroxypropylcellulose) (HPC)) 98 % of control; (dose: 25.0 mg/kg/injection, schedule: Q04DX002 (ip), vehicle: saline) 102 % of control; (dose: 28.0 mg/kg/injection, schedule: Q01DX001 (ip), vehicle: saline) 107 % of control; (dose: 44.0 mg/kg/injection, schedule: Q01DX001 (ip), vehicle: saline) 106 % of control; (dose: 50.0 mg/kg/injection, schedule: Q01DX009 (ip), vehicle: Klucel (hydroxypropylcellulose) (HPC)) 96 % of control; (dose: 50.0 mg/kg/injection, schedule: Q04DX002 (ip), vehicle: saline) 114 % of control. Besides, the T/C runs as follows: (dose: 66.0 mg/kg/injection, schedule: Q01DX001 (ip), vehicle: saline) 104 % of control; (dose: 100.0 mg/kg/injection, schedule: Q01DX001 (ip), vehicle: saline) 101 % of control; under setting [5], 101 % of control; under setting [6], 104 % of control; under setting [7], 98 % of control; (dose: 200.0 mg/kg/injection, schedule: Q04DX002 (ip), vehicle: saline) 109 % of control and 111 % of control. The T/C (dose: 400.0 mg/kg/injection, schedule: Q04DX002 (ip), vehicle: saline) was 114 % of control.
`Cc1cc(C(c2ccccc2)c2ccccc2)cc(C)c1O`: the T/C is 98 % of control under setting [8], 93 % of control under setting [9] and 92 % of control under setting [10].
For the molecule `CCCCCCCCCCCCOCCC(=O)O`, the T/C (dose: 75.0 mg/kg/injection, schedule: Q01DX001 (ip), vehicle: saline) is 100 % of control; the T/C under setting [6] was 94 % of control; the T/C (dose: 300.0 mg/kg/injection, schedule: Q01DX001 (ip), vehicle: saline) was 94 % of control.
Regarding `CC(C(=O)O)C1(O)CCCCC1` (stereo unspecified), the T/C reads like this: (dose: 5.0 mg/kg/injection, schedule: Q04DX003 (ip), vehicle: saline with Tween-80) 96 % of control; (dose: 10.0 mg/kg/injection, schedule: Q04DX003 (ip), vehicle: saline with Tween-80) 89 % of control; (dose: 20.0 mg/kg/injection, schedule: Q04DX003 (ip), vehicle: saline with Tween-80) 87 % of control.
`O=C(O)C(O)C(=O)O`: the T/C reads like this: (dose: 50.0 mg/kg/injection, schedule: Q01DX009 (ip), vehicle: saline) 95 % of control; under setting [1], 89 % of control; under setting [2], 103 % of control; under setting [3], 92 % of control; under setting [4], 100 % of control.
In the case of `CNC(c1ccncc1)C(NC)c1ccncc1` (stereo unspecified), the T/C runs as follows: under setting [5], 94 % of control; (dose: 100.0 mg/kg/injection, schedule: Q04DX003 (ip), vehicle: Klucel (hydroxypropylcellulose) (HPC)) 95 % of control; under setting [7], 91 % of control; (dose: 200.0 mg/kg/injection, schedule: Q04DX003 (ip), vehicle: Klucel (hydroxypropylcellulose) (HPC)) 95 % of control; under setting [11], 96 % of control; (dose: 400.0 mg/kg/injection, schedule: Q04DX003 (ip), vehicle: Klucel (hydroxypropylcellulose) (HPC)) 95 % of control.
In the case of `CCCCNC(=O)Nc1ccccc1Cl`, the T/C under setting [8] is 96 % of control, the T/C under setting [9] was 99 % of control and the T/C under setting [10] is 102 % of control.
Regarding `Cc1cc(OC(=O)Nc2cccc([N+](=O)[O-])c2)cc(C)c1Cl`, the T/C reads like this: under setting [5], 100 % of control; under setting [7], 90 % of control; under setting [11], 93 % of control.

(Values after PubChem BioAssay AID248 (DTP/NCI, 2004).)
